Laboratory results taken from patent US20060233877A1, “Betaine compositions” (priority 2002, published 2006).
Where “and” joins values, the source holds several entries; their conditions need not be identical. Equal entries are not always repeated. One block for each compound: values may come before it.

How the values were obtained:
[1] = system: platelet aggregation induced by ADP; test: Aggregation tests (whole blood aggregometry, ADP 5 μM) after subcutaneous dosing; format: in vivo, Rats Wistar
[2] = system: platelet adhesion and thrombus formation on collagen coated surface; test: Parallel plate chamber: platelet adhesion and thrombus formation on collagen coated surface at 60 dynes/cm^2; format: cell-based, human
Text: The synergistic effect of asa/betaine on platelet adhesion is studied by perfusing blood on thrombogenic surface such as collagen under shear stress conditions.
Effect of betaine, aspirin or betaine/aspirin combination on platelet adhesion and thrombus formation on collagen coated surface.
We studied the effect of asafbetaine on platelet adhesion and thrombus formation under laminar flow at high shear stress (60 dynes/cm^2) on a collagen coated surface. This high shear stress mimics stenosed arteries. The blood of four fastened healthy subjects was sampled on day 1 as to determine basal values and betaine effect when added in vitro (table1), then the subjects were orally administrated a daily oral bolus dose of 350 mg of ASA during 3 days and their blood sampled on day 3 as to determine ASA effect and ASA+betaine effect when betaine is added in vitro to aspirinized blood at different concentrations (table2).
Citrated human aspirinized blood was pre-labelled with mepacrine and exposed to vehicle alone or betaine (20, 40, and 80 μg/ml) for 20 minutes before perfusion.
The effect of asa/betaine has been evaluated by performing experiments 60 dynes/cm^2 witch mimics arterial thrombosis. Before perfusion citrated whole blood was incubated with saline alone or betaine at concentration of 20, 40, and 80 μg/ml for 20 minutes and then perfused on collagen at 60 dynes/cm^2 At the end of 2 minutes of perfusion, cells were fixed and the area covered by thrombi was calculated by analysis of fluorescent thrombus images acquired by confocal microscopy.
Collagen coated slides. Glass slides were with collagen (200 μg/ml; equine collagen), placed for 1 hour in a water bath at 37° C., and the collagen gel allowed to evaporate for 30 minutes under a ventilated hood. Perfusion with citrated whole blood was started and continued for 2 minutes, then blood was withdrawn from the circuit, and platelet thrombi adherent to the collagen coated surface were fixed and stained with May Grunwald-Giemsa.
Images of platelet thrombi were digitised using a light microscope connected to a computer-based image analysis system. The surface occupied by thrombi and mean thrombus area were evaluated by automatic edge detection using built-in specific functions of a software image.
Platelet adhesion and thrombus formation. Platelet adhesion assay was performed according to the described previously (Alevriadou et al., 1993; Boccardo et al., 1997) with minor modifications. Blood collected on citrate (3,8%) was perfused through a flow chamber using a syringe pump. A flow chamber thermostatized to 37° C. was used in which one surface of the perfusion channel is a glass slide coated with equine collagen.
Flow chamber. The chamber dimensions (30 mm long, 1 mm large, and 150 μm in the thickness) allow to obtain a wide range of shear rate low flow rates of blood.
Citrated whole blood was incubated with the fluorescent dye mepacrine 10 μM (quinacrine dihydrochloride BP; Sigma Chemical, St Louis. MO). Mepacrine concentrated in the dense granules of platelets and in the granules of leukocytes and, at this concentration has no effect on normal platelet function (3). Any fluorescence within the erythrocytes is quenched by haemoglobin. Blood was pre-incubated 5 minutes at 37° C. before perfusion. The system was filled with PBS pH 7.3, then perfusion with blood was started and maintained at the constant flow rate of 1500 sec^−1 (corresponding to a shear stress of 60 dynes/cm^2). After 2 min, perfusion was stopped and the slide with the collagen monolayer was dehydrated and fixed in acetone for 20 minutes.
Images of platelet thrombi on collagen surface were acquired by a confocal inverted laser microscope. The surface occupied by thrombi was evaluated by automatic edge detection using built-in specific functions of a software image.

[3] = cited from earlier work
[4] = system: laser-induced thrombosis in the mesenteric microcirculation of the rat; test: Laser-induced thrombosis; format: in vivo, Rats Wistar; details: for Duration of embolisation / Number of emboli: ASA 50 mg/kg s.c.
Text: Principle of Laser-Induced Thrombosis ([…]. et al., 1989; […]. et al., 1983) In this model, lesion of the vascular wall is induced by a laser beam. This beam causes a limited lesion of the vascular endothelium (only 1 to 2 cells are destroyed). This laying bare of the sub-endothelium, which is a thrombogenetic surface, results in the adherence of platelets via glycoproteins. This adherence of platelets is followed by their activation, they form pseudopods and secrete the content of their granules. This activation results in the appearance of glycoprotein binding sites which are necessary for the aggregation of the platelets between them and for platelet adhesion to the thrombogenic surfaces. This lesion is induced in the mesenteric microcirculation of the rat. It is immediately followed by the formation of a thrombus (in a few seconds). This thrombus, which rapidly enlarges under the influence of the blood flow, embolises before being formed again. The substances were subcutaneously injected 1 hour before the tests.

[5] = Solubility in water / concentrated betaine solution; format: physicochemical
[6] = experiment A, ASA 100 mg/kg s.c.
[7] = experiment A, ASA 100 mg/kg s.c., mean
[8] = experiment B, ASA 50 mg/kg s.c.
[9] = experiment B, ASA 50 mg/kg s.c., mean

Compound: CC(=O)Oc1ccccc1C(=O)O [ASA, acetylsalicylic acid]
- Amplitude [1, 6]: 2 ohm and 3 ohm and 4 ohm
- velocity [1, 6]: 4 ohm/min and 3 ohm/min and 5 ohm/min
- Amplitude [1, 7]: 2.6 ± 0.89 ohm
- velocity [1, 7]: 3.8 ± 0.84 ohm/min
- Amplitude [1, 8]: 8 Ohm and 9 Ohm and 10 Ohm and 7 Ohm
- velocity [1, 8]: 7 Ohm/min and 8 Ohm/min and 9 Ohm/min and 6 Ohm/min
- Amplitude [1, 9]: 8.5 Ohm
- velocity [1, 9]: 7.33 Ohm/min
- area covered by thrombi ([2]; aspirinized blood (350 mg ASA oral daily, 3 days) + saline): 72856 pixels/field and 121321 pixels/field and 132458 pixels/field and 122652 pixels/field
- solubility in water [3]: about 0.3%
- Number of laser shoots ([4]; experiment A, ASA 100 mg/kg s.c. 1 hour before, rats 1-5 and mean): 4 and 3
- Number of laser shoots ([4]; experiment A, ASA 100 mg/kg s.c. 1 hour before, rats 1-5 and mean, mean): 3.2 ± 0.45
- Duration of embolisation ([4]; experiment B): 4 min and 3 min and 2 min
- Number of emboli ([4]; experiment B): 3 and 4
- Number of laser shoots ([4]; experiment B, ASA 50 mg/kg s.c. 1 hour before, n=6 rats and mean): 2 and 3
- Number of laser shoots ([4]; experiment B, ASA 50 mg/kg s.c. 1 hour before, n=6 rats and mean, mean): 2.33
- Duration of embolisation ([4]; experiment B, mean): 2.5 min
- Number of emboli ([4]; experiment B, mean): 3.33
- Number laser shoots ([4]; experiment C, ASA 100 mg/kg s.c. 1 hour before, 6 rats and mean): 4 and 3 and 2

Compound: C[N+](C)(C)CC(=O)O [betaine, Betaine monohydrate]
- area covered by thrombi ([2]; betaine 20 μg/ml in vitro, 20 minutes, subjects 1-4 and mean, monohydrate): 88746 pixels/field and 135241 pixels/field and 122369 pixels/field and 154425 pixels/field
- area covered by thrombi ([2]; betaine 40 μg/ml in vitro, 20 minutes, monohydrate): 66852 pixels/field and 92433 pixels/field and 89628 pixels/field and 95645 pixels/field
- area covered by thrombi ([2]; betaine 80 μg/ml in vitro, 20 minutes, monohydrate): 57544 pixels/field and 81585 pixels/field and 76654 pixels/field and 82579 pixels/field
- reduction in platelet deposition in respect to vehicle ([2]; betaine 80 μg/ml, Table 1): −49%
- effect on platelet deposition and thrombus formation ([2]; high shear stress, versus vehicle-treated blood): significantly inhibit platelet deposition and consequent thrombus formation

- amount that can be dissolved ([5]; cold concentrated betaine solution): Up to 5%
- amount dissolved relative to pure water ([5]; cold concentrated betaine solution vs pure water): 15 times
Compound: O=C(O)c1ccccc1O [salicylic acid]
